Reference: patent US20100311801A1, “USE OF TETRAMIC ACID DERIVATIVES FOR CONTROLLING NEMATODES” (priority 2007, published 2010)
“And” between values parts separate entries of the source, which are not always exact repeats. Identical values can stand only once.

How the values were obtained:
Format in all cases: in vivo
[1] = tested on: Meloidogyne arenaria; assay: Tomato pot trial, root-knot nematode galling index and eggs per root system; conditions: for Galling index: 78 d after first treatment, mean; for Appearance of root system (galls, egg masses, rot): visual, at harvest
Method: The experiment is carried out in a shade house at a temperature of around 78 F (76-80 F). The experiment is conduced in a complete randomize design with seven treatments and six replications. 6 inch pots are filled with 1,500 g of steam pasteurized (194 F for 2:30 h) field soil per pot and a 4 weeks old tomato cv. Rutgers transplant is added. The soil is an Arredondo fine sand with ca. 92% sand and 1% om. The soil is taken from a site with no history of root-knot nematode infestation.
The first preventive treatments of Vydate CLV and (I-2) (SC 240; adjuvant: Dyne-Amic (a blend of nonionic and organosilicone surfactants and MSO), 99% active w/v, added 0.25% v/v) are applied as foliar spray. Fosthiazate 900 is applied as a soil drench in 40 gallons water per acre. The second preventive application of Vydate and (I-2) are sprayed over foliage 7 days after l^st treatment. The soil is inoculated by adding 5,000 eggs/pot of Meloidogyne arenaria one day after the 2nd treatment. The curative treatments of Vydate and (I-2) are applied as a foliar spray on 21 and 28 days after inoculation with Meloidogyne arenaria.
All (I-2) and Vydate treatments are applied in 40 gallons of water/acre by a CO2 pressurized sprayer with a single 8003 VS TeeJet noozle. The tomato plants for each treatment are lined up in a row with the spray directed over their foliage until noticeable drip.
78 days after the 1st treatment the plants are harvested. Each root system is evaluated for the percentage of root-knot nematode galling and eggs per root system. A 1 to 6 scale is used for estimating the number galls per root system as follows: 1=no galls on the root system; 2=10%; 3=11 to 30%; 4=31 to 70%; 5=71 to 90%; 6=100% root system galled. Following the determination of percentage of galling the roots are processed in a bleach solution to dissolve away the gelatinous matrix surrounding the eggs. Individual eggs are collection on a 500 mesh sieve and poured into a counting dish for determining their numbers.

[2] = tested on: Pratylenchus sp.; assay: Vine field trial, number of nematodes in soil after foliar (I-2) or drench (imidacloprid) application; conditions: vines, (I-2) 12.5 fl oz per 605 plants foliar, imidacloprid 14 fl oz drench; for Activity against Pratylenchus sp., number of nematodes, 30 d: 30 days after first treatment; for Activity against Pratylenchus sp., number of nematodes, 60 d: 60 days after first treatment; for Activity against Pratylenchus sp., number of nematodes, 0 d: prior to treatment
Method: (§1) In 5 replications, in each case 15 vines of the cultivar “Thompson Seedless 1948” are treated against soil-dwelling nematodes using a fogger. Here, a tank mix of the active compound (I-2) (SC 240) is applied after foliar application at the stated application rates with 0.25% of the adjuvant Activator 90, in comparison to imidacloprid (SC 550) after drench application by micro-irrigation injection. The water application rate is 75 gallons per acre=605 plants. Two applications of active compound (I-2) are carried out at an interval of 32 days.
(§2) Evaluation is carried out prior to the treatment and 30 days and 60 days after the first treatment by counting the number of nematodes in 500 g of soil.

[3] = tested on: Meloidogyne incognita; assay: as above; conditions: for Activity against Meloidogyne incognita, number of nematodes, 0 d: vines Thompson Seedless, prior to treatment, (I-2) SC 240 12.5 fl oz per 605 plants foliar, imidacloprid SC 550 14 fl oz drench; for Activity against Meloidogyne incognita, number of nematodes, 30 d / Activity against Meloidogyne incognita, number of nematodes, 60 d: vines, (I-2) 12.5 fl oz per 605 plants foliar (2 applications, 32 d interval), imidacloprid 14 fl oz drench; for Activity against Meloidogyne incognita, number of nematodes, 30 d: 30 days after first treatment; for Activity against Meloidogyne incognita, number of nematodes, 60 d: 60 days after first treatment
Method: as §1, §2

[4] = tested on: Mesocriconema xenoplax; assay: as above; conditions: vines, (I-2) 12.5 fl oz per 605 plants foliar, imidacloprid 14 fl oz drench; for Activity against Mesocriconema xenoplax, number of nematodes, 30 d: 30 days after first treatment; for Activity against Mesocriconema xenoplax, number of nematodes, 60 d: 60 days after first treatment; for Activity against Mesocriconema xenoplax, number of nematodes, 0 d: prior to treatment
Method: as §1, §2

[5] = tested on: Tylenchulus semipenetrans; assay: Foliar application of (I-2) to citrus in pots for control of Tylenchulus semipenetrans; conditions: individual trees
Method: Foliar Application of (I-2) to Citrus in Pots for Control of Tylenchulus semipenetrans
Treatments: 15 trees sprayed with (I-2=Movento), 15 trees sprayed with water (presample each pot); 25 mL/tree
Add Tylenchulus semipenetrans larvae to all pots. The following day take trees out of greenhouse. Cover top of pot to exclude spray from soil. (I-2) (SC 240) is sprayed in a concentration of 2.6 ml plus 2.5 ml adjuvant MSO (methylated seed oil), (100% active w/v, added to the spray solution at 0.25% v/v) per liter sprac solution. Spray canopy from two sides of trees to runoff with a 2 gallon “Sure Spray” pump sprayer (Chapin Mfg.) using a nozzle that delivers a cone shape spray pattern. Allow material to dry before returning plants to greenhouse. Repeat in 14 days.
For this citrus nematode trial, 5-year old Volkamer lemon seedlings are infested with T. semipenetrans obtained from the field and maintained in the greenhouse (25-32° C.) for use in pesticide trials. Trees used in the experiment are not treated with nematicidal compounds. The seedlings are growing in a 50:50 mixture of Astatula sand (97% sand) and Pro-mix potting mixture in rectangular pots (10×10×30 cm). Trees are irrigated normally, but receive no fertilizer or pesticide treatments other than (I-2) during the experiment. Effects on citrus nematode are evaluated by soil sampling 30 days and 60 days after treatment.
Tylenchulus semipenetrans raw data (juvenile and male nematodes per […] soil. Pi is initial population before treatment, Pf is final population at one and two months post treatment).

[6] = preventive treatment, tomato cv. Rutgers, scale 1 to 6 (1 = no galls, 6 = 100% of root system galled)
[7] = preventive treatment, tomato, 5,000 eggs/pot inoculated

Compound	Galling index [1, 6]	Number of eggs/root system 78 d after first treatment [1, 7]	Appearance of root system (galls, egg masses, rot) ([1]; preventive treatment)	Activity against Pratylenchus sp., number of nematodes, 30 d [2]	Activity against Pratylenchus sp., number of nematodes, 60 d [2]	Activity against Pratylenchus sp., number of nematodes, 0 d [2]	Activity against Meloidogyne incognita, number of nematodes, 0 d [3]	Activity against Meloidogyne incognita, number of nematodes, 30 d [3]	Activity against Meloidogyne incognita, number of nematodes, 60 d [3]	Activity against Mesocriconema xenoplax, number of nematodes, 30 d [4]	Activity against Mesocriconema xenoplax, number of nematodes, 60 d [4]	Activity against Mesocriconema xenoplax, number of nematodes, 0 d [4]	Number of eggs/root system 78 d after first treatment ([1]; curative treatment (21 and 28 days after inoculation), tomato)	Galling index ([1]; curative treatment (21 and 28 days after inoculation), tomato, scale 1 to 6)	Appearance of root system (galls, egg masses, rot) ([1]; curative treatment)	Treat Pi (initial population before treatment) ([5]; Volkamer lemon seedlings in pots, before treatment)	Treat Pf (final population one month post treatment) ([5]; (I-2) SC 240 2.6 ml/l plus MSO foliar, repeated after 14 days, one month post treatment)	Treat Pf2 (final population two months post treatment) ([5]; (I-2) SC 240 2.6 ml/l plus MSO foliar, repeated after 14 days, two months post treatment)
CCOP(=O)(SC(C)CC)N1CCSC1=O (stereo not drawn) [Fosthiazate, reference compound]	5.3	453,500 eggs/root system	darkened decaying roots with numerous galls and egg masses															
O=[N+]([O-])NC1=NCCN1Cc1ccc(Cl)nc1 [Imidacloprid, reference compound]				320 nematodes in 500 g of soil	319.6 nematodes in 500 g of soil	406 nematodes in 500 g of soil	267 nematodes in 500 g of soil	171 nematodes in 500 g of soil	188 nematodes in 500 g of soil	808.4 nematodes in 500 g of soil	958.46 nematodes in 500 g of soil	1863 nematodes in 500 g of soil						
CCOC(=O)OC1=C(c2cc(C)ccc2C)C(=O)N[C@]12CC[C@@H](OC)CC2 [(I-2)]	6.0	421,600 eggs/root system	numerous egg masses and coalesced galls	371.2 nematodes in 500 g of soil	454 nematodes in 500 g of soil	826 nematodes in 500 g of soil	312 nematodes in 500 g of soil	140.8 nematodes in 500 g of soil	178.8 nematodes in 500 g of soil	861.2 nematodes in 500 g of soil	942.8 nematodes in 500 g of soil	1817 nematodes in 500 g of soil	141,000 eggs/root system	4.5	little darkening or rotting appearance	2412.5 juvenile and male nematodes per 100 cm^2 soil and 2100.0 juvenile and male nematodes per 100 cm^2 soil and 1700.0 juvenile and male nematodes per 100 cm^2 soil and 9237.5 juvenile and male nematodes per 100 cm^2 soil and 4180.0 juvenile and male nematodes per 100 cm^2 soil and 400.0 juvenile and male nematodes per 100 cm^2 soil and 4250.0 juvenile and male nematodes per 100 cm^2 soil (2×) and 1625.0 juvenile and male nematodes per 100 cm^2 soil and 125.0 juvenile and male nematodes per 100 cm^2 soil (2×) and 2190.0 juvenile and male nematodes per 100 cm^2 soil and 210.0 juvenile and male nematodes per 100 cm^2 soil and 2490.0 juvenile and male nematodes per 100 cm^2 soil and 250.0 juvenile and male nematodes per 100 cm^2 soil	168.83 juvenile and male nematodes per 100 cm^2 soil and 519.74 juvenile and 534.25 juvenile and 1440.00 juvenile and 2753.33 juvenile and 336.84 juvenile and 708.33 juvenile and 638.16 juvenile and 87.21 juvenile and 1803.37 juvenile and 1402.78 juvenile and 60.81 juvenile and 1448.86 juvenile and 86.21 juvenile and 54.35 juvenile	181.82 juvenile and male nematodes per 100 cm^2 soil and 380.95 juvenile and 338.71 juvenile and 1207.55 juvenile and 7807.69 juvenile and 347.46 juvenile and 1908.33 juvenile and 4122.22 juvenile and 175.44 juvenile and 1409.84 juvenile and 3205.36 juvenile and 92.59 juvenile and 1481.13 juvenile and 551.02 juvenile and 531.25 juvenile
